Laboratory results published in ChEMBL document CHEMBL4819101, “Design, synthesis and molecular docking studies of thymol based 1,2,3-triazole hybrids as thymidylate synthase inhibitors and apoptosis inducers against breast cancer cells” (Bioorg Med Chem, 2021).

Experiments:
MDA-MB-231 [1] = assay: cells; settings: Homo sapiens, MDA-MB-231, 72 h
Description: Cytotoxicity against human MDA-MB-231 cells assessed as cell growth inhibition incubated for 72 hrs by MTT assay

MCF7 [2] = assay: cells; settings: Homo sapiens, MCF7, 72 h
Description: Cytotoxicity against human MCF7 cells assessed as cell growth inhibition incubated for 72 hrs by MTT assay

MCF7 [3] = assay: Induction of apoptosis in human MCF7 cells assessed as total apoptotic cells at 10 uM incubated for 48 hrs by annexin-V-FITC and PI staining based flow cytometry analysis (reference value: 8.3 %); type: functional
MDA-MB-231 [4] = assay: Potency index, ratio of tamoxifen IC50 to test compound IC50 for cytotoxicity against human MDA-MB-231 cells assessed as cell growth inhibition incubated for 72 hrs by MTT assay; type: functional
Thymidylate synthase [5] = molecular target: T1, Thymidylate synthase (Homo sapiens, UniProt P04818); assay: Inhibition of human thymidylate synthase expressed in Escherichia coli using 6R,S-tetrahydrofolate and dUMP as substrate by spectrophotometric analysis
MCF7 [6] = assay: Potency index, ratio of 5-fluorouracil IC50 to test compound IC50 for cytotoxicity against human MCF7 cells assessed as cell growth inhibition incubated for 72 hrs by MTT assay; type: functional
HEK293 = assay: Cytotoxicity against human HEK293 cells assessed as cell growth inhibition incubated for 72 hrs by MTT assay; type: cell-based; settings: HEK293, 72 h
MCF7 [7] = assay: Induction of cell cycle arrest in human MCF7 cells assessed as accumulation at sub-G1 phase at 10 uM incubated for 48 hrs by PI staining based flow cytometry analysis (reference value: 3.7 %); type: functional
MCF7 [8] = assay: Induction of cell cycle arrest in human MCF7 cells assessed as increase in accumulation at G2/M phase at 10 uM incubated for 48 hrs by PI staining based flow cytometry analysis relative to control; type: functional
MDA-MB-231 [9] = assay: Potency index, ratio of 5-fluorouracil IC50 to test compound IC50 for cytotoxicity against human MDA-MB-231 cells assessed as cell growth inhibition incubated for 72 hrs by MTT assay; type: functional
Thymidylate synthase [10] = molecular target: T1, Thymidylate synthase; assay: Inhibition of thymidylate synthase (unknown origin)

T1 sequence (P04818 whole entry): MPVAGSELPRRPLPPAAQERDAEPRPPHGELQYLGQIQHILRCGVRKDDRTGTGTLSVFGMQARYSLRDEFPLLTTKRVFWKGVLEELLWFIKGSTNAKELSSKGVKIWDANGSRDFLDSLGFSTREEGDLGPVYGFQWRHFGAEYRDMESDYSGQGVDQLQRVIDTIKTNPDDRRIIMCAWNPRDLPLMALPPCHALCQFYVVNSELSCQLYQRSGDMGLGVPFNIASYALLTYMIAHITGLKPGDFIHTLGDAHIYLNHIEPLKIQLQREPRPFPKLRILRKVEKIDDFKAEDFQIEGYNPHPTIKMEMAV

Row | Compound | IC50 (MDA-MB-231 [1]) [µM] | IC50 (MCF7 [2]) [µM] | also measured
1 | Cc1ccc(C(C)C)c(OCc2cn(-c3cccc(Cl)c3)nn2)c1 | 45.2 | 32.1 | –
2 | O=c1[nH]cc(F)c(=O)[nH]1 [FLUOROURACIL] | 25.3 | 20.1 | –
3 | Cc1ccc(C(C)C)c(OCc2cn(-c3cccc4c(-n5cc(COc6cc(C)ccc6C(C)C)nn5)cccc34)nn2)c1 | 22.1 | 18.1 | –
4 | Cc1ccc(C(C)C)c(OCc2cn(-c3ccc(F)cc3)nn2)c1 | 32.6 | 22.1 | –
5 | Cc1ccc(C(C)C)c(OCc2cn(-c3ccccc3C)nn2)c1 | 10.5 | 6.17 | Activity (MCF7 [3]): 29.4%; Ratio IC50 (MDA-MB-231 [4]): 1.42; IC50 (Thymidylate synthase [5]): 2.21 µM; Ratio IC50 (MCF7 [6]): 3.2; IC50 (HEK293): > 50 µM; Activity (MCF7 [7]): 21.4%; Activity (MCF7 [8]): 37.3%
6 | Cc1cccc(-n2cc(COc3cc(C)ccc3C(C)C)nn2)c1 | 31.2 | 28.1 | –
7 | Cc1ccc(C(C)C)c(OCc2cn(-c3ccc([N+](=O)[O-])cc3)nn2)c1 | 41 | 32.2 | –
8 | CC/C(=C(\c1ccccc1)c1ccc(OCCN(C)C)cc1)c1ccccc1 [TAMOXIFEN] | 15 | 5.62 | –
9 | Cc1ccc(C(C)C)c(OCc2cn(-c3cccc(C(=O)O)c3)nn2)c1 | 11.4 | 10.3 | Ratio IC50 (MDA-MB-231 [4]): 1.3; IC50 (Thymidylate synthase [5]): 4.27 µM; Ratio IC50 (MCF7 [6]): 1.95; Ratio IC50 (MDA-MB-231 [9]): 2.2
10 | Cc1ccc(C(C)C)c(OCc2cn(-c3ccccc3)nn2)c1 | 45.1 | 29.9 | –
11 | CCOC(=O)C1CCC(c2ccccc2)N1C(=O)c1cn(CCCNC(=O)C(F)(F)F)nn1 (stereo not given) | – | – | IC50 (Thymidylate synthase [10]): 0.057 µM
12 | Cc1ccc(C(C)C)c(OCc2cn(-c3ccc(O)cc3)nn2)c1 | 30.4 | 45.4 | –
13 | COc1ccc(-n2cc(COc3cc(C)ccc3C(C)C)nn2)cc1 | 45.3 | 25.4 | –
14 | Cc1ccc(C(C)C)c(OCc2cn(-c3ccccc3Cl)nn2)c1 | 26.6 | 15.6 | Ratio IC50 (MCF7 [6]): 1.2
15 | Nc1nc2[nH]cc(CCc3ccc(C(=O)N[C@@H](CCC(=O)O)C(=O)O)cc3)c2c(=O)[nH]1 [PEMETREXED] | – | – | IC50 (Thymidylate synthase [5]): 5.39 µM
